The text below walks through data of PMC11969996, “Minimalistic bis-triarylpyridinium cations: effective antimicrobials against bacterial and fungal pathogens” (RSC Medicinal Chemistry, 2025).

Data set [1] concerns C. albicans. The data set can be described thus: Mitochondrial membrane depolarization, DiOC6(3) staining, flow cytometry. In kind it is cell-based, Candida albicans. Particulars: 3.5 hours. On the technique in general: In flow cytometry, cells or beads pass a laser one at a time.
Procedure: Cultures of C. albicans were incubated with the fluorescent probe DiOC6(3), which typically accumulates in mitochondria due to the high membrane potential when the organelle works properly. Flow cytometry was used to measure the fluorescence intensity of the accumulated dye, establishing a baseline control (see “control” in Fig. 4).
To evaluate mitochondrial function in C. albicans by DiOC6 staining, the yeast cells were initially cultivated overnight in Sabouraud broth. The cultures were then transferred to a fresh medium, adjusting the OD600 to 0.1. […] The cultures were incubated for 3.5 hours with orbital shaking at 37 °C. After this period, the OD of each culture was standardized to 0.06 using the corresponding spent medium. Cells were subsequently stained with 0.3 μM DiOC6 for 20 minutes. Assays were performed in triplicate. Analysis was conducted using a BD Accuri™ C6 flow cytometer.
Data set [2] has as its system E. faecalis. The data set can be described thus: MIC by broth microdilution (EUCAST). Particulars: E. faecalis ATCC 29212, MHB, overnight 37 °C, read-out: Minimum inhibitory concentration (MIC90) E. faecalis. The class given is cell-based, Enterococcus faecalis. On the procedure:
(§1) The Gram-negative bacterial strain E. coli CECT 101 and P. aeruginosa ATCC 27853 were supplied by The Colección Española de Cultivos Tipo (CECT, Valencia, Spain) and the American Type Culture Collection (ATCC, Rockville, MD, USA). The Gram-positive bacterial strain S. aureus ATCC 25923, E. faecalis ATCC 29212 and the fungal strain C. albicans ATCC 1023 were supplied by The American Type Culture Collection (ATCC, Maryland, USA). Bacterial and yeast growth was carried out aerobically overnight at 35 °C in Mueller Hinton agar and Sabouraud dextrose agar, respectively (Scharlau, Spain).
(§2) The MIC of the compounds 1a–d, 2a–d, and 3a–d was determined by a broth microdilution method according to the EUCAST protocol. Briefly, 0.5 McFarland bacterial and fungal suspensions were prepared in Müeller Hinton broth (MHB) and Sabouraud dextrose broth (SDB) media, respectively. In a 96-well plate, serial dilutions of compounds 1a–d, 2a–d, 3a–d starting from 512 to 0 μg mL^−1 were made in MHB and SDB media, respectively. After incubation overnight at 37 °C, results were evaluated according to turbidity. Bacterial growth was determined by measuring absorbance at a wavelength of 600 nm and at 520 nm for fungi.[53–55]
(In general: Dilution methods test growth across graded concentrations, often in twofold steps.)

Data set [3] has as its system C. albicans. As to the kind of experiment: MIC by broth microdilution (EUCAST). Conditions: overnight 37 °C, read-out: Minimum inhibitory concentration (MIC90) C. albicans. The class given is cell-based, Candida albicans. As to the method: as §1, §2
In data set [4] the test system is red blood cells. The data set can be described thus: Lysis (hemolysis) assay. The class given is cell-based. Conditions: human erythrocytes, 1 hour, 37 °C, 1% DMSO. As to the method:
The hemolysis test was performed following literature procedures.[14] Preparation of the erythrocyte suspension: human blood (6 mL) was transferred to a Falcon tube. The sample was then centrifuged at 10 000 rpm for 10 minutes. After centrifugation, the supernatant was discarded, and the cells were resuspended in 4 mL of 10 mM PBS. This centrifugation and resuspension process was repeated twice to remove plasma residues. Finally, the resulting cell suspension was diluted at a 1 : 20 ratio with 10 mM PBS. Hemolysis assay: a total of 500 μL of the prepared erythrocyte suspension was aliquoted into Eppendorf tubes according to the experimental conditions. The final DMSO concentration in each condition was adjusted to 1%. A 1% Triton™ X-100 solution was used as the positive control (100% hemolysis), while the negative control consisted of erythrocytes suspended in PBS with 1% DMSO (0% hemolysis). Samples were incubated at 37 °C with shaking at 200 rpm for 1 hour. Following incubation, the samples were centrifuged at 10 000 rpm for 10 minutes. Subsequently, 200 μL of the supernatant was collected and transferred to a 96-well plate. Absorbance was measured at 520 nm using a plate reader.

For data set [5], the system named is E. coli. As to the kind of experiment: MIC by broth microdilution (EUCAST). Conditions: Escherichia coli, CECT101; E. coli CECT 101, MHB, overnight 37 °C; read-out: Minimum inhibitory concentration (MIC90) E. coli. The class given is cell-based. On the procedure: as §1, §2
Data set [6] relates to S. aureus. As to the kind of experiment: MIC by broth microdilution (EUCAST). In kind it is cell-based. Particulars: Staphylococcus aureus, ATCC25923; S. aureus ATCC 25923, MHB, overnight 37 °C; read-out: Minimum inhibitory concentration (MIC90) S. aureus. As to the method:
as §1, §2

Data set [7] concerns P. aeruginosa. The data set can be described thus: MIC by broth microdilution (EUCAST). The class given is cell-based. Particulars: Pseudomonas aeruginosa, ATCC27853; P. aeruginosa ATCC 27853, MHB, overnight 37 °C; read-out: Minimum inhibitory concentration (MIC90) P. aeruginosa. On the procedure: as §1, §2
Data set [8] deals with E. coli. Particulars: cited from earlier work.
For data set [9], the system named is C. albicans. Particulars: cited from earlier work.
In data set [10] the test system is S. aureus. Conditions: cited from earlier work.
[11] abbreviates: Enterococcus faecalis, ATCC29212.
[12] abbreviates: Candida albicans, ATCC1023, C. albicans ATCC 1023, SDB.

In brackets after ≈: the same amount, converted by molar mass. Where two headings read alike, the source gives them in different places.

For `c1ccc(-c2cc(-c3ccccc3)[n+](CCCCCCCCCC[n+]3c(-c4ccccc4)cc(-c4ccccc4)cc3-c3ccccc3)c(-c3ccccc3)c2)cc1` [1a], in [1] (compound at 6 μM), the “DiOC6(3) fluorescence intensity relative to control” value is reported as “about one-tenth”. Further, the MIC90 is 1.1 µM in data set [2] (setting [11]); 2.2 µM in data set [3] (C. albicans ATCC 1023, SDB); 2.2 to 6.2 µM in data set [3] (setting [12]); 4.4 µM in data set [5]; 4.4 µM in data set [6]; 70 µM in data set [7]. Also, the Lysis20 in [4] came to 45 µM.
As for `Brc1ccc(-c2cc(-c3ccccc3)[n+](CCCCCCCCCC[n+]3c(-c4ccccc4)cc(-c4ccc(Br)cc4)cc3-c3ccccc3)c(-c3ccccc3)c2)cc1` [1b], the MIC90 is 1 µM in data set [2] (setting [11]); 118 µM in [3] (setting [12]); 7.6 µM in data set [5]; 7.6 µM in data set [6]; 30 µM in data set [7]. Also, the Lysis20 in [4] worked out at 20 µM.
Regarding `Brc1ccc(-c2cc(-c3ccccc3)cc(-c3ccc(Br)cc3)[n+]2CCCCCCCCCC[n+]2c(-c3ccc(Br)cc3)cc(-c3ccccc3)cc2-c2ccc(Br)cc2)cc1` [1c], the MIC90 in data set [2] (setting [11]) is 13 µM; in [3] (setting [12]) it was over 103 µM; in data set [5], over 103 µM; in data set [6] it was 13 µM; in data set [7], over 103 µM. The compound further registered a Lysis20 in data set [4] of 27 µM.
Regarding `Brc1ccc(-c2cc(-c3ccc(Br)cc3)[n+](CCCCCCCCCC[n+]3c(-c4ccc(Br)cc4)cc(-c4ccc(Br)cc4)cc3-c3ccc(Br)cc3)c(-c3ccc(Br)cc3)c2)cc1` [1d], the MIC90 in data set [2] is 6.0 µM; in [2] (setting [11]) it was 6 µM; in data set [3] (C. albicans ATCC 1023, SDB), over 91 µM; in [3] (setting [12]) it was over 91 µM; in data set [5], 46 µM; in [6], 11 µM. Also, the MIC90 in data set [7] is over 91 µM. This compound also returned a Lysis20 in data set [4] of over 256 µM.
In the case of `CCCCCCCCCCCC[n+]1c(-c2ccccc2)cc(-c2ccccc2)cc1-c1ccccc1` [2a], the MIC90 in data set [2] (setting [11]) was 3.6 µM; in [3] (C. albicans ATCC 1023, SDB) it was 3.6 µM; in data set [3] (setting [12]), 2.2 to 6.2 µM; in [5] it was 28 µM; in data set [6], 28 µM; in data set [7], over 112 µM. In [4], this compound showed a Lysis20 of 31 µM.
In the case of `CCCCCCCCCCCC[n+]1c(-c2ccccc2)cc(-c2ccc(Br)cc2)cc1-c1ccccc1` [2b], the MIC90 in data set [2] (setting [11]) was 24 µM; in data set [5], 25 µM; in data set [6], 12 µM; in data set [7] it was over 200 µM. The Lysis20 in [4] was determined as 26 µM.
As to `CCCCCCCCCCCC[n+]1c(-c2ccc(Br)cc2)cc(-c2ccccc2)cc1-c1ccc(Br)cc1` [2c], the MIC90 in data set [2] (setting [11]) was 11 µM; in data set [3] (setting [12]), 178 µM; in data set [5] it was 178 µM; in [6], 22 µM; in [7], over 178 µM. The same compound gave a Lysis20 in data set [4] of 26 µM.
As for `CCCCCCCCCCCC[n+]1c(-c2ccc(Br)cc2)cc(-c2ccc(Br)cc2)cc1-c1ccc(Br)cc1` [2d], the MIC90 in [2] (setting [11]) was 40 µM; in data set [3] (setting [12]) it was over 160 µM; in [5], over 320 µM; in [6], 40 µM; in data set [7], over 160 µM. The Lysis20 in [4] came out at 42 µM.
On to `CCC[n+]1c(-c2ccccc2)cc(-c2ccccc2)cc1-c1ccccc1` [3a], for which, in data set [1] (compound at 6 μM), the “DiOC6(3) fluorescence intensity relative to control” value was “normal DiOC6(3) accumulation”. Also, the MIC90 in data set [2] (setting [11]) was over 293 µM; in [3] (setting [12]), over 293 µM; in data set [5], over 585 µM; in data set [6], 146 µM; in [7] it was over 293 µM. Besides, in data set [4], the Lysis20 is over 256 µM.
With `CCC[n+]1c(-c2ccccc2)cc(-c2ccc(Br)cc2)cc1-c1ccccc1` [3b], the MIC90 in data set [2] (setting [11]) was 124 µM; in data set [3] (setting [12]), over 248 µM; in data set [5] it was over 496 µM; in data set [6] it was 31 µM; in data set [7], over 248 µM. The same compound returned a Lysis20 in [4] of over 256 µM.
Regarding `CCC[n+]1c(-c2ccc(Br)cc2)cc(-c2ccccc2)cc1-c1ccc(Br)cc1` [3c], the MIC90 in data set [2] (setting [11]) is 54 µM; in [3] (setting [12]) it was over 215 µM; in data set [5], over 430 µM; in data set [6], 54 µM; in data set [7], over 215 µM. The compound further yielded a Lysis20 in data set [4] of over 256 µM.
Regarding `CCC[n+]1c(-c2ccc(Br)cc2)cc(-c2ccc(Br)cc2)cc1-c1ccc(Br)cc1` [3d], the MIC90 in [2] (setting [11]) is 24 µM; in data set [5], over 380 µM; in data set [6], 48 µM; in data set [7], over 190 µM. For the same compound, the MIC in [3] (setting [12]) was over 90 µM. For the same compound, the Lysis20 in data set [4] is over 256 µM.
As for `Cc1cc(N)c2ccccc2[n+]1CCCCCCCCCC[n+]1c(C)cc(N)c2ccccc21` [DQA, dequalinium chloride], the MIC in [8] was 121 µM; in data set [9] it was 5.5 µM; in [10], 2.4 µM.
As for `N#CC(C#N)=NNc1ccc(OC(F)(F)F)cc1` [FCCP, carbonyl cyanide-4-(trifluoromethoxy)phenylhydrazone, reference compound], in [1] (compound at 30 μM), the “DiOC6(3) fluorescence intensity relative to control” value is given as “approximately half”.
On to `CCCCCCCCN=c1ccn(CCCCCCCCCCn2ccc(=NCCCCCCCC)cc2)cc1` [OCT, octenidine], for which the MIC in data set [9] was 2.93 µM (≈ 1.61 µg/mL).
As to `COc1ccc2cc3[n+](cc2c1OC)CCc1cc2c(cc1-3)OCO2` [berberine], the MIC in [9] was 24 µM.
On to benzalkonium chloride [BAC], for which the figures for the MIC in [8] and in data set [10] were 63 µM and 4 µM, respectively.
